US8148373B2, “Compounds” (AstraZeneca AB, priority 2008, dated 2012)

Tests used:
[1] = target: T1, human muscarinic acetylcholine M3 receptor (M3-ACh) (Homo sapiens, UniProt P20309); test: Muscarinic 3 Receptor Binding Assay, % inhibition specific binding at 1 μM; conditions: 1 μM compound, % inhibition specific [3H]-NMS binding
T1 construct: expressed in transfected cells; host or cells: CHO-K1 (Chinese Hamster Ovary) cell membranes
Procedure: The following experimental procedure was used to determine the M3% inhibition at 1 μM of the compounds of Examples 116-263.
Muscarinic 3 Receptor Binding Assay
The activity (% inhibition specific binding) of compounds -on the M3 receptor is determined by competition binding of [^3H]N-methyl scopolamine (NMS) to CHO-K1 (Chinese Hamster Ovary) cell membranes expressing the human muscarinic acetylcholine M3 receptor (M3-ACh) in a scintillation proximity assay (SPA) format.
SPA beads are precoated with membranes and then incubated at 2 mg of beads per well with 1 μM compound of the invention, [^3H]NMS at 0.1 nM, quarter Kd (experimentally determined dissociation constant) and assay buffer (20 mM HEPES pH 7.4 containing 5 mM MgCl2). The assay is conducted in a final volume of 200 μL, in the presence of 1% (v/v) dimethyl sulphoxide (DMSO). Total binding of [^3H]NMS is determined in the absence of competing compound and non-specific binding of [^3H]NMS is determined in the presence of 1 μM atropine. The plates are incubated for 16 hours at room temperature and then read on Wallac Microbeta™ using a normalised ^3H protocol. The compound activity at 1 defined as % inhibition specific [^3H]-NMS binding, is determined.

[2] = target: T2, Adrenergic β2 (H292 cells) (Homo sapiens, UniProt P07550); test: Adrenergic β2 Mediated cAMP Production, single concentration 1 μM; assay type: cell-based; conditions: percentage of the maximum response generated by 1E-07M formoterol; for activation at 1 µM: NCI-H292, 1 μM compound, read-out: β2 (% effect at 1 μM)
T2 construct: endogenous in cells; host or cells: H292 cells
T2 sequence (P07550 whole entry): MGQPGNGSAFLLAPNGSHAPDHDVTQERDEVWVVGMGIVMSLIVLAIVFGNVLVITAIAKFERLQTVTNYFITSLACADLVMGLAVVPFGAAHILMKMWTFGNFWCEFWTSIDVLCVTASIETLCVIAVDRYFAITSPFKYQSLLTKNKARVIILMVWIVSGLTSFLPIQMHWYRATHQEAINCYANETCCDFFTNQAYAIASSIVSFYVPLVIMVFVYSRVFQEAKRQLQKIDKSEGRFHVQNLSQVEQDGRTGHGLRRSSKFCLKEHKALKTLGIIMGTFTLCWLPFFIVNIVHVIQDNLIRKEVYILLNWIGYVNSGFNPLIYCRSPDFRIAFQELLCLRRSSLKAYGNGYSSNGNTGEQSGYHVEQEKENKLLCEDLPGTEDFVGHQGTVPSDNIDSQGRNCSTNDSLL
Procedure: The following experimental procedure was used to measure the beta-2% effect at 1 μM for the compounds of Examples 116-263. Adrenergic β2 Mediated cAMP Production Cell Preparation
H292 cells are grown in 225 cm2 flasks incubator at 37° C., 5% CO2 in RPMI medium containing 10% (v/v) FBS (foetal bovine serum) and 2 mM L-glutamine.
Compounds were prepared by an initial first dilution into DMSO to give 1 mM stock concentration. This was followed by a 1 in 10 dilution of the stock concentration (10 μl stock compound+90 μl DMSO) to give 0.1 mM compound.
A compound addition plate was prepared by making a further 1 in 25 dilution in assay buffer (HBSS solution containing 10 mM HEPES pH7.4 and 5 mM glucose) containing 4% dimethylsulfoxide. The final compound concentration in assay is 1 μM.
Adherent H292 cells are removed from tissue culture flasks by treatment with Accutase™ cell detachment solution for 15 minutes. Flasks are incubated for 15 minutes in a humidified incubator at 37° C., 5% CO2. Detached cells are re-suspended in RPMI media (containing 10% (v/v) FBS and 2 mM L-glutamine) at 0.1×10^6 cells per mL. 10000 cells in 100 μL are added to each well of a tissue-culture-treated 96-well plate and the cells incubated overnight in a humidified incubator at 37° C., 5% CO2. The culture media is removed and cells are washed twice with 100 μL assay buffer and replaced with 50 μL assay buffer (HBSS solution containing 10 mM HEPES pH7.4 and 5 mM glucose). Cells are rested at room temperature for 20 minutes after which time 25 μL of rolipram (1.2 mM made up in assay buffer) is added. Cells are incubated with rolipram for 10 minutes after which time 25 μl test compounds are added and the cells are incubated for 60 minutes at room temperature. The final rolipram concentration in the assay is 300 μM and final vehicle concentration is 1% (v/v) dimethylsulphoxide. The reaction is stopped by removing supernatants, washing once with 100 μL assay buffer and replacing with 50 μL lysis buffer. The cell monolayer is frozen at −80° C. for 30 minutes (or overnight).
AlphaScreen™ cAMP Detection
The concentration of cAMP (cyclic adenosine monophosphate) in the cell lysate is determined using AlphaScreen™ methodology. The frozen cell plate is thawed for 20 minutes on a plate shaker then 10 μL of the cell lysate is transferred to a 96-well white plate. 40 μL of mixed AlphaScreen™ detection beads (containing equal volumes of donor beads (pre-incubated with biotinylated cAMP in the dark for 30 minutes) and acceptor beads is added to each well and the plate incubated at room temperature for 3 hours in the dark. The AlphaScreen™ signal is measured using an EnVision spectrophotometer (Perkin-Elmer Inc.) with the recommended manufacturer's settings. Concentration of cAMP produced per well were calculated with reference to the cAMP standard curve determined in the same experiment and expressed as a percentage of the maximum response generated by 1E-07M formoterol.

T1 sequence (P20309 whole entry): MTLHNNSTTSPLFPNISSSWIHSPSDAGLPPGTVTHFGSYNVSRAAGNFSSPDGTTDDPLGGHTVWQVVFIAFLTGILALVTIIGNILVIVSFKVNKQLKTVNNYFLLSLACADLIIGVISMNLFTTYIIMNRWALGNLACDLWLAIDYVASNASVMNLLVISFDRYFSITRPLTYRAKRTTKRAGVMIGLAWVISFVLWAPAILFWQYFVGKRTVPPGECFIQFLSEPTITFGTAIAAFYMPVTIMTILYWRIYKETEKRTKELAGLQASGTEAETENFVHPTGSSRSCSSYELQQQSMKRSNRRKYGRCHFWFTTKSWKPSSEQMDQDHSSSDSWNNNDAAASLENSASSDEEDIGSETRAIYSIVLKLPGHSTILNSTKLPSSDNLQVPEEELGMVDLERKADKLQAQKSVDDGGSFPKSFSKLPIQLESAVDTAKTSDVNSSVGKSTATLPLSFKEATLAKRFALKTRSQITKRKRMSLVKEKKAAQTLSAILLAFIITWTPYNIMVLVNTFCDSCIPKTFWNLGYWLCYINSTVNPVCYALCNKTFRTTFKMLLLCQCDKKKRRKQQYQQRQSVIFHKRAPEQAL

Row | Structure (SMILES) | inhibition at 1 µM [1] [%] | activation at 1 µM [2] [%] | M3 (% inhibition at 1 μM) [1] [%] | β2 (% effect at 1 μM) ([2]; 1 μM compound) [%]
1 | O=C([C@@H]1CCCO1)N1CCOC2(CCN(Cc3cc(F)cc(CCNC[C@H](O)c4ccc(O)c5[nH]c(=O)sc45)c3)CC2)C1 [Example 158, 7-((R)-2-(3-fluoro-5-((4-((S)-tetrahydrofuran-2-carbonyl)-1-oxa-4,9-diazaspiro[5.5]undecan-9-yl)methyl)phenethylamino)-1-hydroxyethyl)-4-hydroxybenzo[d]thiazol-2(3H)-one] | 72 | 95 |  | 
2 | CC(C)c1cc(C(=O)N2CCOC3(CCN(CCOc4ccc(CNC[C@H](O)c5ccc(O)c6[nH]c(=O)sc56)cc4)CC3)C2)no1 [Example 255, (R)-4-hydroxy-7-(1-hydroxy-2-(4-(2-(4-(5-isopropylisoxazole-3-carbonyl)-1-oxa-4,9-diazaspiro[5.5]undecan-9-yl)ethoxy)benzylamino)ethyl) benzo[d]thiazol-2(3H)-one] | 32 | 66 |  | 
3 | O=C(c1ccsc1Cl)N1CCOC2(CCN(CCCCCCCCCNC[C@H](O)c3ccc(O)c4[nH]c(=O)sc34)CC2)C1 [Example 212, (R)-7-(2-(9-(4-(2-chlorothiophene-3-carbonyl)-1-oxa-4,9-diazaspiro[5.5]undecan-9-yl)nonylamino)-1-hydroxyethyl)-4-hydroxybenzo[d]thiazol-2(3H)-one] | 88 | 93 |  | 
4 | Cc1nc(CC(=O)N2CCOC3(CCN(Cc4cc(F)cc(CCNC[C@H](O)c5ccc(O)c6[nH]c(=O)sc56)c4)CC3)C2)cs1 [Example 166, (R)-7-(2-(3-fluoro-5-((4-(2-(2-methylthiazol-4-yl)acetyl)-1-oxa-4,9-diazaspiro[5.5]undecan-9-yl)methyl)phenethylamino)-1-hydroxyethyl)-4-hydroxybenzo[d]thiazol-2(3H)-one] | 69 | 95 |  | 
5 | O=C(c1ccc2[nH]ccc2c1)N1CCOC2(CCN(Cc3cc(F)cc(CCNC[C@H](O)c4ccc(O)c5[nH]c(=O)sc45)c3)CC2)C1 [Example 138, (R)-7-(2-(3-((4-(1H-indole-5-carbonyl)-1-oxa-4,9-diazaspiro[5.5]undecan-9-yl)methyl)-5-fluorophenethylamino)-1-hydroxyethyl)-4-hydroxybenzo[d]thiazol-2(3H)-one] | 27 | 92 |  | 
6 | O=C(N1CCOC2(CCN(Cc3cc(F)cc(CCNC[C@H](O)c4ccc(O)c5[nH]c(=O)sc45)c3)CC2)C1)C1(c2ccccc2)CCCC1 [Example 129, (R)-7-(2-(3-fluoro-5-((4-(1-phenylcyclopentanecarbonyl)-1-oxa-4,9-diazaspiro[5.5]undecan-9-yl)methyl)phenethylamino)-1-hydroxyethyl)-4-hydroxybenzo[d]thiazol-2(3H)-one] | 20 | 90 |  | 
7 | O=C(c1c[nH]c2ccccc12)N1CCOC2(CCN(Cc3cc(F)cc(CCNC[C@H](O)c4ccc(O)c5[nH]c(=O)sc45)c3)CC2)C1 [Example 137, (R)-7-(2-(3-((4-(1H-indole-3-carbonyl)-1-oxa-4,9-diazaspiro[5.5]undecan-9-yl)methyl)-5-fluorophenethylamino)-1-hydroxyethyl)-4-hydroxybenzo[d]thiazol-2(3H)-one] | 13 | 112 |  | 
8 | O=C(c1ccc(-c2cnco2)cc1)N1CCOC2(CCN(Cc3cc(F)cc(CCNC[C@H](O)c4ccc(O)c5[nH]c(=O)sc45)c3)CC2)C1 [Example 159, (R)-7-(2-(3-fluoro-5-((4-(4-(oxazol-5-yl)benzoyl)-1-oxa-4,9-diazaspiro[5.5]undecan-9-yl)methyl)phenethylamino)-1-hydroxyethyl)-4-hydroxybenzo[d]thiazol-2(3H)-one] | 3 | 90 |  | 

Next, values leading:

Row | inhibition at 1 µM [1] [%] | activation at 1 µM [2] [%] | M3 (% inhibition at 1 μM) [1] [%] | β2 (% effect at 1 μM) ([2]; 1 μM compound) [%] | Structure (SMILES)
9 | 48 | 80 |  |  | O=C(Cc1ccccc1)N1CCOC2(CCN(CCOc3ccc(CNC[C@H](O)c4ccc(O)c5[nH]c(=O)sc45)cc3)CC2)C1 [Example 227, (R)-4-hydroxy-7-(1-hydroxy-2-(4-(2-(4-(2-phenylacetyl)-1-oxa-4,9-diazaspiro[5.5]undecan-9-yl)ethoxy)benzylamino)ethyl) benzo[d]thiazol-2(3H)-one]
10 | 92 | 71 |  |  | Cc1csc(C(=O)N2CCOC3(CCN(CCOc4ccc(CNC[C@H](O)c5ccc(O)c6[nH]c(=O)sc56)cc4)CC3)C2)c1 [Example 254, (R)-4-hydroxy-7-(1-hydroxy-2-(4-(2-(4-(4-methylthiophene-2-carbonyl)-1-oxa-4,9-diazaspiro[5.5]undecan-9-yl)ethoxy)benzylamino)ethyl) benzo[d]thiazol-2(3H)-one]
11 |  |  | 96 | 55 | O=C(c1csc(C(F)(F)F)n1)N1CCOC2(CCN(CCOc3ccc(CNC[C@H](O)c4ccc(O)c5[nH]c(=O)sc45)cc3)CC2)C1 [Example 258]
12 | 31 | 70 |  |  | CC(C)(C(=O)N1CCOC2(CCN(CCOc3ccc(CNC[C@H](O)c4ccc(O)c5[nH]c(=O)sc45)cc3)CC2)C1)c1ccccc1 [Example 230, (R)-4-hydroxy-7-(1-hydroxy-2-(4-(2-(4-(2-methyl-2-phenylpropanoyl)-1-oxa-4,9-diazaspiro[5.5]undecan-9-yl)ethoxy)benzylamino)ethyl) benzo[d]thiazol-2(3H)-one]
13 | 34 | 92 |  |  | O=C(COc1ccccc1)N1CCOC2(CCN(CCOc3ccc(CNC[C@H](O)c4ccc(O)c5[nH]c(=O)sc45)cc3)CC2)C1 [Example 240, (R)-4-hydroxy-7-(1-hydroxy-2-(4-(2-(4-(2-phenoxyacetyl)-1-oxa-4,9-diazaspiro[5.5]undecan-9-yl)ethoxy)benzylamino)ethyl) benzo[d]thiazol-2(3H)-one]
14 | 44 | 70 |  |  | O=C(CCc1cccs1)N1CCOC2(CCN(CCOc3ccc(CNC[C@H](O)c4ccc(O)c5[nH]c(=O)sc45)cc3)CC2)C1 [Example 248, (R)-4-hydroxy-7-(1-hydroxy-2-(4-(2-(4-(3-(thiophen-2-yl)propanoyl)-1-oxa-4,9-diazaspiro[5.5]undecan-9-yl)ethoxy)benzylamino)ethyl) benzo[d]thiazol-2(3H)-one]
15 | 60 | 75 |  |  | O=C(CCOc1ccccc1)N1CCOC2(CCN(CCOc3ccc(CNC[C@H](O)c4ccc(O)c5[nH]c(=O)sc45)cc3)CC2)C1 [Example 247, (R)-4-hydroxy-7-(1-hydroxy-2-(4-(2-(4-(3-phenoxypropanoyl)-1-oxa-4,9-diazaspiro[5.5]undecan-9-yl)ethoxy)benzylamino)ethyl) benzo[d]thiazol-2(3H)-one]
16 | 51 | 76 |  |  | Cc1ccn(CC(=O)N2CCOC3(CCN(CCOc4ccc(CNC[C@H](O)c5ccc(O)c6[nH]c(=O)sc56)cc4)CC3)C2)n1 [Example 245, (R)-4-hydroxy-7-(1-hydroxy-2-(4-(2-(4-(2-(3-methyl-1H-pyrazol-1-yl)acetyl)-1-oxa-4,9-diazaspiro[5.5]undecan-9-yl)ethoxy)benzylamino)ethyl) benzo[d]thiazol-2(3H)-one]
